How the values were obtained:
[1] = Cytotoxicity against human neutrophils assessed as cell viability at 50 uM after 4 hrs by trypan blue assay; type: cell-based, Neutrophil; details: read-out: Activity
[2] = system: Neutrophil; experiment: Inhibition of PMA-induced oxidative burst in human neutrophils by chemiluminescence assay; type: functional, cell-based
[3] = system: Neutrophil; experiment: Inhibition of PMA-induced oxidative burst in human neutrophils by amplex red assay; type: functional, cell-based
[4] = system: Neutrophil; experiment: Inhibition of PMA-induced oxidative burst in human neutrophils by APF assay; type: functional, cell-based
[5] = system: Neutrophil; experiment: Induction of apoptosis in human neutrophils assessed as necrotic cells at 50 uM after 4 hrs by Annexin-V-FLUOS staining based flow cytometry (reference value: 0.1%); type: functional
[6] = system: Neutrophil; experiment: Induction of apoptosis in human neutrophils assessed as late apoptotic cells at 50 uM after 4 hrs by Annexin-V-FLUOS staining based flow cytometry (reference value: 0.5%); type: functional
[7] = system: Neutrophil; experiment: Induction of apoptosis in human neutrophils assessed as early apoptotic cells at 50 uM after 4 hrs by Annexin-V-FLUOS staining based flow cytometry (reference value: 9.7%); type: functional
[8] = system: Neutrophil; experiment: Induction of apoptosis in human neutrophils assessed as viable cells at 50 uM after 4 hrs by Annexin-V-FLUOS staining based flow cytometry (reference value: 89.8%); type: functional; details: read-out: Activity
[9] = system: Neutrophil; experiment: Inhibition of PMA-induced oxidative burst in human neutrophils at 50 uM by chemiluminescence assay; type: functional
[10] = system: Neutrophil; experiment: Inhibition of PMA-induced oxidative burst in human neutrophils at 50 uM by amplex red assay; type: functional
[11] = system: Neutrophil; experiment: Inhibition of PMA-induced oxidative burst in human neutrophils at 50 uM by APF assay; type: functional
[12] = system: Neutrophil; experiment: Induction of apoptosis in human neutrophils assessed as necrotic cells at 50 uM after 4 hrs by Annexin-V-FLUOS staining based flow cytometry in presence of Z-DEVD-FMK caspase 3 (reference value: 0.0%); type: functional
[13] = system: Neutrophil; experiment: Induction of apoptosis in human neutrophils assessed as late apoptotic cells at 50 uM after 4 hrs by Annexin-V-FLUOS staining based flow cytometry in presence of Z-DEVD-FMK caspase 3 (reference value: 0.8%); type: functional
[14] = system: Neutrophil; experiment: Induction of apoptosis in human neutrophils assessed as early apoptotic cells at 50 uM after 4 hrs by Annexin-V-FLUOS staining based flow cytometry in presence of Z-DEVD-FMK caspase 3 (reference value: 10.1%); type: functional
[15] = system: Neutrophil; experiment: Induction of apoptosis in human neutrophils assessed as viable cells at 50 uM after 4 hrs by Annexin-V-FLUOS staining based flow cytometry in presence of Z-DEVD-FMK caspase 3 (reference value: 89.0%); type: functional; details: read-out: Activity

O=c1c(O)c(-c2ccc(O)c(O)c2)oc2cc(O)cc(O)c12 [QUERCETIN]
viability at 4 h, 50 µM [1]: 98%
IC50 [2]: 2800 nM
IC50 [3]: 2700 nM
IC50 [4]: 1800 nM
Activity [5]: 0.1%
Activity [6]: 0.6%
Activity [7]: 14.6%
viability at 50 µM [8]: 84.7%

O=c1c(Cl)c(-c2ccc(O)c(O)c2)oc2cc(O)cc(O)c12
viability at 4 h, 50 µM [1]: 98%
IC50 [2]: 2000 nM
IC50 [3]: 1400 nM
IC50 [4]: 400 nM

O=c1c(Cl)c(-c2ccc(O)c(O)c2)oc2c(Cl)c(O)cc(O)c12
viability at 4 h, 50 µM [1]: 98%
IC50 [2]: 4600 nM
IC50 [3]: 1700 nM
IC50 [4]: 1800 nM

O=c1cc(-c2ccccc2)oc2ccccc12 [FLAVONE]
viability at 4 h, 50 µM [1]: 98%
inhibition at 50 µM [9]: < 40%
inhibition at 50 µM [10]: < 40%
inhibition at 50 µM [11]: < 40%

O=c1cc(-c2ccc(O)c(O)c2)oc2c(Cl)c(O)cc(O)c12
viability at 4 h, 50 µM [1]: 98%
IC50 [2]: 2600 nM
IC50 [3]: 1600 nM
IC50 [4]: 2600 nM
Activity [5]: 0%
Activity [6]: 0.5%
Activity [7]: 25.3%
viability at 50 µM [8]: 74.1%
Activity [12]: 0%
Activity [13]: 1%
Activity [14]: 9.6%
viability at 50 µM [15]: 89.4%

O=c1cc(-c2ccc(O)c(O)c2)oc2cc(O)cc(O)c12 [LUTEOLIN]
viability at 4 h, 50 µM [1]: 98%
IC50 [2]: 5200 nM
IC50 [3]: 1700 nM
IC50 [4]: 2200 nM
Activity [5]: 0.1%
Activity [6]: 1.1%
Activity [7]: 20.2%
viability at 50 µM [8]: 78.6%

O=c1cc(-c2ccc(O)c(O)c2)oc2c(Cl)c(O)c(Cl)c(O)c12
viability at 4 h, 50 µM [1]: 98%
IC50 [2]: 3400 nM
IC50 [3]: 6200 nM
IC50 [4]: 7200 nM
Activity [5]: 0.1%
Activity [6]: 0.9%
Activity [7]: 15.3%
viability at 50 µM [8]: 83.7%
